PMC9458095, “In Vitro Evaluation of In Silico Screening Approaches in Search for Selective ACE2 Binding Chemical Probes” (Molecules, 2022)
Like-named read-outs stand apart in the source and are kept apart here.

Key:
[1] = target: T1, ACE2 (Homo sapiens, UniProt Q9BYF1); experiment: ACE2 inhibitor screening kit (Abcam ab273373), fluorescence enzymatic assay, MCA-based peptide substrate; format: biochemical; settings: for inhibition at 20 µM: 20 µM final concentration, n = 1, 25 µL, read-out: Inhibition% (primary screen hits)
T1 construct: purchased Abcam ab273373
Source text: Despite the commercial availability of ACE2 Inhibitor Screening Kits the optimal HTS protocols are still not published and their validation is still needed. Among available kits the Abcam, ab273373 was used. This assay is based on the ability of active angiotensin-converting enzyme (ACE2) to cleave a synthetic MCA-based peptide substrate (the structure not disclosed by the manufacturer) and release a free fluorophore. The released fluorophore can be easily quantified using a standard fluorescence microplate reader. During this screening campaign, the next milestones were estimated: (i) optimization of the test compounds solutions used volume (without loss of performance and analytical signal recognition); (ii) optimization of reaction volume and concentrations of the reagents; (iii) determination of IC50 for known inhibitor MLN-4760 (EN300-22203532) and reference inhibitor from the kit (the structure not disclosed by manufacturer) in new validated conditions; (iv) primary screening of 577 selected compounds; (v) hit confirmation; (vi) dose-response curve (DRC) of confirmed hits.
The commercial Abcam (ab273373) Angiotensin II Converting Enzyme (ACE2) Inhibitor Screening Kit and 384-well 3544 Corning low volume, black clear bottom plates were used. The reagent preparation was performed in accord with kit instruction. In order to prepare the required enzyme concentration, we dissolved […] of stock enzyme solution (concentration in stock and MW not disclosed) in 198 µL of ACE2 Dilution Buffer (provided by the Manufacturer), then aliquoted the entire volume into 25 µL and frozen at −70 °C. A substrate solution calculated for one assay well contained 0.5 µL of stock Substrate solution and 9.5 µL of ACE2 Assay Buffer, stored at −70 °C. Reference inhibitor from the kit (five µL in stock, structure, and MW not disclosed) was not aliquoted, 50 µL of ACE Assay Buffer should be added directly before the experiment.
Primary screen assay conditions. Volume: 25 µL; Concentrations: enzyme and substrate solutions prepared according to the instructions and further diluted both to 1:2 in the Assay mixture. Assay buffer: provided by the Manufacturer (composition not disclosed, see SI for reference). Compounds: 20 µM final concentrations in the Assay mixture, n = 1. Reference Inhibitors: (1) Ref. inhibitor provided by the Manufacturer, 300 nM, (n = 4); (2) Compound from Enamine library EN300-22203532, 2.5 nM, (n = 4). Temperature: 25 °C. The enzyme solution was added into corresponding plate wells (columns 1–22), and buffer was added into wells corresponding to negative (Enzyme) control (columns 23, 24). Plates were incubated for 15 min at 25 °C. Then Substrate solution was added to all experimental wells. Plates were centrifuged and measurement started in kinetic mode (Exc/Em 320/420 nm). Results processing: two time points were chosen from kinetic curves for all wells and corresponding RFU values were obtained. ΔRFU/Δt were calculated for each curve and % of inhibition values were calculated from the equation: 100%—ΔRFU of sample/ΔRFU of Enzyme control*100%, according to the recommendation of the Manufacturer.
DRC and IC50 calculations. Concentrations: enzyme and substrate solutions were diluted both to 1:2 in the Assay mixture. Assay buffer: provided by the Manufacturer (composition not disclosed). Temperature: 25 °C. Compounds: 2-fold titrated from 100 µM, n = 4. Reference Inhibitors: (1) Ref. inhibitor Abcam 2-fold titrated from 1.5 µM, (n = 4); (2) Ref. inhibitor EN300-22203532, 2-fold titrated from 20 nM, (n = 4). Compounds were incubated with enzyme for 15 min. Plates were measured in kinetic mode (Exc/Em 320/420 nm). […]

[2] = target: T1, ACE2; experiment: as above; format: biochemical; settings: DRC measured three times each, 3-fold titration, 25 µL, enzyme and substrate 1:2; read-out: IC50 of reference inhibitors in optimized conditions
[3] = tested on: human ACE2 (CHEMBL3736); settings: ChEMBL 26, cited from earlier work
[4] = dose-response of confirmed hits, as in Figure 10, read-out: IC50(ACE2)
[5] = dose-response, 2-fold titrated, n = 4, 15 min incubation with enzyme, 25 °C, enzyme and substrate 1:2, read-out: IC50 (DRC, Figure 9)

T1 sequence (Q9BYF1 18-805): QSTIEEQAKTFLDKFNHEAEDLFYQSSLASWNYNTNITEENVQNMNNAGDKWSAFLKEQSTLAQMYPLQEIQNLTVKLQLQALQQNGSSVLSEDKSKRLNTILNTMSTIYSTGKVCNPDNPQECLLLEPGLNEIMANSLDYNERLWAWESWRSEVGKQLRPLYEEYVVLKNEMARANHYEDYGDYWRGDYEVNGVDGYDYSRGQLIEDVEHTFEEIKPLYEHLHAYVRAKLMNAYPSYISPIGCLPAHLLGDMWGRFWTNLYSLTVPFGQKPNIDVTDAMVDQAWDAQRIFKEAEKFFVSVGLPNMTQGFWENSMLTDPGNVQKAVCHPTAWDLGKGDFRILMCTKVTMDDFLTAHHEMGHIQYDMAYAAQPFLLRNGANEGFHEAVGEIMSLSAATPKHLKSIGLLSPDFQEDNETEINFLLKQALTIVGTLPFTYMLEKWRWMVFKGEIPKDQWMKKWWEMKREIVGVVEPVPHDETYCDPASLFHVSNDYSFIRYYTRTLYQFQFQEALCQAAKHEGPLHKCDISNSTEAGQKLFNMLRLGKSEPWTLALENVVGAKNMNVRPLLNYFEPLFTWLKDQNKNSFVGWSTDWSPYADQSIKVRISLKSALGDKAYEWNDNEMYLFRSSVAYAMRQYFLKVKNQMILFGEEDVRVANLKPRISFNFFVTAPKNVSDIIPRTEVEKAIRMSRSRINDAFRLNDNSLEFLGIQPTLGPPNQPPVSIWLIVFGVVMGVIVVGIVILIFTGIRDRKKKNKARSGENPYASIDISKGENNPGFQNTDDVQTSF

Structure (SMILES) | inhibition at 20 µM ([1]; enzyme and substrate 1:2) [%] | IC50 [1, 4] [µM] | IC50 [1, 5] [µM] | other results
O=C(NC1CN(c2ccccc2)C1=O)c1ncccc1O (centres unmarked) [Compound 7] | 52.1 | 269 | – | –
Cc1ccc(CCC2CCN(C(=O)CN3CCCC3C(=O)O)CC2)cc1 (centres unmarked) [Compound 4] | 54 | 16.8 | – | –
CC(C)C[C@H](N[C@@H](Cc1cncn1Cc1cc(Cl)cc(Cl)c1)C(=O)O)C(=O)O [MLN-4760, reference compound] | – | – | 0.2 | IC50 [2]: 0.0009 to 0.0025 µM; IC50 ([3]; known selective ACE2 inhibitor): 0.00044 µM; %inh_Ref EN300-22203532, Plate 1 ([1]; primary screen QC, 2.5 nM, n = 4, plate 1): 69.9%; %inh_Ref EN300-22203532, Plate 2 ([1]; primary screen QC, 2.5 nM, n = 4, plate 2): 72.2%
Cc1ccc2nc(-c3ccc(NC(=O)CCC(=O)O)cc3)sc2c1 [Compound 2, Cc1ccc2nc(sc2c1)-c1ccc(NC(=O)CCC([O-])=O)cc1] | 74.1 | – | 110 | –
O=C(O)CC(NC(=O)c1ccc(-c2ccc(F)cc2)o1)c1ccc(F)cc1 (centres unmarked) [Compound 3] | 28.9 | 46.4 | – | –
CCC(C(=O)O)[S+]([O-])Cc1csc(-c2ccc3c(c2)OCO3)n1 (centres unmarked) [Compound 6] | 50.1 | – | 67.3 | –
O=C(O)CSc1ccc(C(=O)/C=C/c2cnn(-c3ccccc3)c2)cc1F [Compound 5, OC(=O)CSc1ccc(cc1F)C(=O)C=Cc1cnn(c1)-c1ccccc1] | 29.8 | 53.6 | – | –
CC(NC(=O)CCCCC(=O)O)c1ccc(-c2ccc(N(C)C)cc2)cc1 (centres unmarked) [Compound 1] | 38.8 | 45.8 | – | –
CC[C@@H](C)[C@H](S)C(=O)N[C@@H](Cc1ccc(OCc2ccc(F)c(F)c2)cc1)C(=O)O [CHEMBL251808, CC[C@@H](C)[C@H](S)C(=O)N[C@@H](Cc1ccc(OCc2ccc(F)c(F)c2)cc1)C(O)=O] | – | – | – | Ki ([3]; known selective ACE2 inhibitors): 0.00085 µM
